# Measured values taken from ChEMBL document CHEMBL1153761, “Bisnicalaterine A, a vobasine-vobasine bisindole alkaloid from Hunteria zeylanica” (J Nat Prod, 2009).
# Tests used:
# Type in all cases: functional, cell-based
# [1] = system: RPMI-8226; test: Cytotoxicity against human RPMI8226 cells after 48 hrs by MTT assay; settings: RPMI-8226, 48 h
# [2] = system: HCT-116; test: Cytotoxicity against human HCT116 cells after 48 hrs by MTT assay; settings: HCT-116, 48 h
# [3] = system: HL-60; test: Cytotoxicity against human HL60 cells after 48 hrs by MTT assay; settings: HL-60, 48 h
# [4] = system: NCI-H226; test: Cytotoxicity against human NCI-H226 cells after 48 hrs by MTT assay; settings: NCI-H226, 48 h
# [5] = system: MCF7; test: Cytotoxicity against human MCF7 cells after 48 hrs by MTT assay; settings: MCF7, 48 h
compound,measurement,setting,value
C/C=C1/CN(C)[C@H]2Cc3c([nH]c4ccccc34)[C@H](n3c4c(c5ccccc53)C[C@H]3[C@@H](C(=O)OC)[C@H](C[C@H]4O)/C(=C\C)CN3C)C[C@H]1[C@@H]2C(=O)OC [BISNICALATERINE A],IC50,[1],31.3 µg/mL
same,IC50,[2],21.9 µg/mL
same,IC50,[3],16.2 µg/mL
same,IC50,[4],28.1 µg/mL
same,IC50,[5],38 µg/mL
